Some test systems named below: SK-MEL-2 melanoma; ACHN renal; SW-620 colon; SNB-19 CNS; SF-539 CNS; CAKI-1 renal; NCI-H460 lung; M14 melanoma; MDA-MB-231 breast; T-47D breast.
Holding throughout (assay): growth of human tumour cells (NCI), 48 h

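Values below derive from 48-hour exposures of cells grown in 96-well plates, with endpoints linearly interpolated between the two concentrations bracketing the appropriate inhibition level. At the TGI there is no net growth.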

Consider `CCN(/N=C1\CC2C=CCN(C2)C(=O)Cc2c1[nH]c1ccccc21)S(=O)(=O)c1ccc(C)cc1` (stereo not drawn), for which the TGI in the experiment on SK-MEL-2 melanoma, in the experiment with ACHN renal, with SW-620 colon, with SNB-19 CNS, with SF-539 CNS and in the experiment with CAKI-1 renal was more than 100 µM in each case.
`O=C1CN(c2ccccc2)C(=O)CN1NCNN1CC(=O)N(c2ccccc2)CC1=O`: the TGI in the experiment on ACHN renal, in the experiment with NCI-H460 lung, in the experiment with M14 melanoma, in the experiment on SW-620 colon, in the experiment with SNB-19 CNS and in the experiment with SF-539 CNS was more than 100 µM each time. The TGI in the experiment with CAKI-1 renal was more than 100 µM.
Turning to `C/C(CCN(C)C)=N\OC(=O)c1ccccc1`, the TGI in the experiment on SK-MEL-2 melanoma, with ACHN renal, in the experiment with NCI-H460 lung, in the experiment on M14 melanoma, in the experiment with SW-620 colon and with SNB-19 CNS was more than 100 µM each time. For the same compound, the TGI with SF-539 CNS and in the experiment on CAKI-1 renal was more than 100 µM in each case.
As for `COc1ccc(/C=C/C(=O)CCN2CCN(CCC(=O)/C=C/c3ccc(OC)cc3)CC2)cc1`, the TGI in the experiment with SK-MEL-2 melanoma came to 42 µM; in the experiment on ACHN renal it was 27.2 µM; in the experiment on NCI-H460 lung, 23.1 µM; in the experiment with M14 melanoma, 32.5 µM; in the experiment on SW-620 colon, 19.7 µM; with MDA-MB-231 breast, 25.2 µM. Further, the values for the TGI in the experiment with SNB-19 CNS, with SF-539 CNS and in the experiment with CAKI-1 renal were more than 100 µM, 19.1 µM and 26.3 µM, respectively.
In the case of `COc1ccc(Nc2cc(=O)[nH]c(=O)[nH]2)cc1`, the TGI in the experiment with ACHN renal, with NCI-H460 lung, in the experiment on M14 melanoma, in the experiment with SW-620 colon, in the experiment with MDA-MB-231 breast and in the experiment with SNB-19 CNS was more than 100 µM throughout. The same compound returned a TGI in the experiment on SF-539 CNS of more than 100 µM.
As to `NC(CSCSCC(N)C(=O)O)C(=O)O` (stereo not drawn), the TGI in the experiment on SK-MEL-2 melanoma, with NCI-H460 lung, in the experiment on SW-620 colon, in the experiment on SNB-19 CNS, in the experiment on SF-539 CNS and with CAKI-1 renal was more than 225 µM in each case.
Take `O[C@@]12Cc3c([nH]c4ccccc34)[C@@H]3Oc4c(-c5ccccc5)ccc5c4[C@@]31CCN(CC1CC1)[C@@H]2C5`: the TGI in the experiment on T-47D breast was determined as 4.71 µM; in the experiment on SK-MEL-2 melanoma it was 3.3 µM; in the experiment on ACHN renal, 2.75 µM; in the experiment on NCI-H460 lung, 3.36 µM; in the experiment with M14 melanoma, 3.31 µM; with SW-620 colon it was 4.61 µM. The TGI turned out to be 3.95 µM with SNB-19 CNS and 11.1 µM with CAKI-1 renal.
For `Cc1ccc(S(=O)(=O)Nn2c(S)c(C#N)c(-c3ccc(Cl)cc3)c(C#N)c2=O)cc1`, the TGI with SK-MEL-2 melanoma was more than 100 µM; with ACHN renal, more than 100 µM; in the experiment with NCI-H460 lung, 31.4 µM; in the experiment on M14 melanoma, more than 100 µM; with SW-620 colon it was 51.7 µM; with MDA-MB-231 breast, more than 100 µM. The TGI in the experiment with SNB-19 CNS was more than 100 µM; with SF-539 CNS, 39.6 µM; in the experiment on CAKI-1 renal, more than 100 µM.
Take `CC(C)C(CCOS(=O)(=O)O)CCC(C)[C@H]1[C@@H](O)C(O)C2[C@]3(O)C[C@@H](O)C4(O)C[C@@H](O)CC[C@]4(C)C3CC[C@@]21C` (stereo partly drawn): the TGI in the experiment on SK-MEL-2 melanoma, in the experiment on ACHN renal, in the experiment on NCI-H460 lung, in the experiment with M14 melanoma, in the experiment on SW-620 colon and with SNB-19 CNS was more than 100 µM each time. Besides, the TGI in the experiment with SF-539 CNS and in the experiment on CAKI-1 renal was more than 100 µM in each case.
Turning to `COc1cccc(/C=N/[N-]C(N)=O)c1[O-].[Co+2].[OH3+].c1ccncc1`, the TGI in the experiment on SK-MEL-2 melanoma, in the experiment on ACHN renal, with NCI-H460 lung, in the experiment with M14 melanoma, in the experiment on SW-620 colon and in the experiment with SF-539 CNS was more than 100 µM in each case. This compound also had a TGI with CAKI-1 renal of more than 100 µM.
For the compound `C[C@@H](c1ccccc1)N1CO[C@@]2(C#Cc3ccc4c(c3)OCO4)CCC[C@@H]12`, the TGI in the experiment with T-47D breast is 34 µM; with SK-MEL-2 melanoma, 34.3 µM; in the experiment on ACHN renal, more than 100 µM; in the experiment with NCI-H460 lung, 26 µM; in the experiment on M14 melanoma it was 31.2 µM; in the experiment with MDA-MB-231 breast, 28.2 µM. Further, the TGI was 30.3 µM with SNB-19 CNS and 34.6 µM with CAKI-1 renal.
For the compound `N#C/C(=C\c1ccc[nH]1)C(=O)c1ccccc1`, the TGI in the experiment with SK-MEL-2 melanoma, in the experiment on ACHN renal, in the experiment with NCI-H460 lung, in the experiment with M14 melanoma, in the experiment with SW-620 colon and in the experiment with SNB-19 CNS was more than 100 µM throughout. In addition, the TGI in the experiment with SF-539 CNS and in the experiment on CAKI-1 renal was more than 100 µM in each case.
In the case of `CC(C)c1c(O[Si](C(C)C)(C(C)C)C(C)C)cc2c(c1O)CC[C@H]1C(C)(C)CCC[C@]21C`, the TGI with SK-MEL-2 melanoma, in the experiment with ACHN renal, with NCI-H460 lung, with M14 melanoma, with SW-620 colon and in the experiment on MDA-MB-231 breast was more than 100 µM each time. Further, the TGI in the experiment on SNB-19 CNS, with SF-539 CNS and in the experiment on CAKI-1 renal was more than 100 µM in each case.
Take `O=C(CCCn1ccnc1[N+](=O)[O-])NCCn1cnc([N+](=O)[O-])n1`: the TGI in the experiment with T-47D breast, in the experiment with SK-MEL-2 melanoma, in the experiment on ACHN renal, in the experiment on NCI-H460 lung, in the experiment with M14 melanoma and in the experiment on SW-620 colon was more than 100 µM throughout. Further, the TGI with SF-539 CNS and with CAKI-1 renal was more than 100 µM in each case.
For the compound `C[C@]12CCc3nn(-c4ccccc4)nc3C1CC[C@@H]1C2CC[C@]2(C)C(=O)CCC12` (stereo partly drawn), the TGI with SK-MEL-2 melanoma, in the experiment with ACHN renal, with NCI-H460 lung, in the experiment on M14 melanoma, in the experiment with SW-620 colon and with SNB-19 CNS was more than 100 µM throughout. For the same compound, the TGI in the experiment on SF-539 CNS and in the experiment with CAKI-1 renal was more than 100 µM each time.
For the compound `COc1ccc(-c2cc(=O)c3cc(O)ccc3o2)c(OC)c1OC`, the TGI was more than 100 µM in the experiment on SK-MEL-2 melanoma; 93.6 µM in the experiment on ACHN renal; more than 100 µM with M14 melanoma; more than 100 µM in the experiment with SW-620 colon; more than 100 µM with SNB-19 CNS; more than 100 µM in the experiment with SF-539 CNS. In the experiment on CAKI-1 renal, this compound yielded a TGI of more than 100 µM.

Values taken from PubChem BioAssay (NCI).
